Results on two molecules are retold here after US20210317092A1 (BAYER PHARMA AKTIENGESELLSCHAFT, priority 2016, published 2021).

The structures appear in SMILES notation. pIC50: −log10 of the molar value.

The target in test [1] is T1, native human Bradykinin B1 receptor (Homo sapiens, UniProt P46663).
T1 construct: which express native human Bradykinin B1 receptor after induction with human IL-10; Coriell Institute; host or cells: IMR-90 human foetal lung fibroblasts, cytokine-induced
T1 sequence (P46663 1-353): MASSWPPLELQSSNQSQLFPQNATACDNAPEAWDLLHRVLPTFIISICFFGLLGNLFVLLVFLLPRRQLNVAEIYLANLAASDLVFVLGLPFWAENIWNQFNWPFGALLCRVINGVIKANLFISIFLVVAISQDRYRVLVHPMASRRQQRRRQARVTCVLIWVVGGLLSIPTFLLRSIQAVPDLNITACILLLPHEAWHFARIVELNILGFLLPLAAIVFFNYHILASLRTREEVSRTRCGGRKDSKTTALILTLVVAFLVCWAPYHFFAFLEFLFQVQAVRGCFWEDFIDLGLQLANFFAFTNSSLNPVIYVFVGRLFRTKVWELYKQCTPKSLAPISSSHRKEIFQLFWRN
Nature of the test: Calcium flux Assay (FLIPR) with human fibroblasts expressing Bradykinin B1 receptor (hB1 IMR-90). The format is cell-based. Particulars: IMR-90 human fibroblasts expressing native Bradykinin B1 receptor. In outline: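 IMR-90 human foetal lung fibroblasts induced with 0.35 ng/mL […] for 3 h, Fluo-4/AM-loaded, preincubated with compound (8 concentrations, triplicate) for 30 min at 28 °C, then challenged with Lys-(Des-Arg)-bradykinin at EC90. Ca2+ fluorescence was read at 538 nm; full inhibition set by 20 µM Lys-(Des-Arg-Leu)-bradykinin; IC50 derived.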

Test [2] deals with IL-1B and des-Arg9-bradykinin (DABK) induced paw oedema. Nature of the test: Rat paw oedema in vivo model. The note with it: p.o., p < 0.05 versus vehicle (6.45 ± 1.14). Here is the method: Rat Paw Oedema In Vivo Model
Male Sprague Dawley rats, approximately 250 g body weight, were used. The compound examples were administered orally in the vehicle as described in “Rat CFA in vivo model”, supra. Rats were treated orally (p.o.) with a solution of 5 mL/kg bodyweight of the vehicle only or 5 mL/kg bodyweight of a solution containing the vehicle plus the compound in a dose as indicated in Table 4. Rats received an intraplantar injection of IL-1B (5 μg in 20 μL) and des-Arg9-bradykinin (DABK; 10 μg in 20 μL) at 20 and 40 minutes after compound treatment, respectively. Paw oedema was measured by water displacement using a plethysmometer (Ugo Basile, Gemonio, Italy). Paw oedema measurement was performed before compound administration (baseline) and subsequently at 20, 40 and 60 minutes after DABK injection. Paw oedema was calculated by subtracting the baseline value to post-DABK treatment values for each individual and at each time point. Data were analysed by calculating the area under the paw oedema time curve for each individual (0-60 minutes post-DABK). The effect of the compound example, relative to that of the vehicle, was analysed by performing a one-way ANOVA followed by a Dunnett's post-hoc test. […] The mean and standard deviation were calculated for each treatment group for graphical representations.

Test [3] concerns CFA-induced mechanical hyperalgesia. In words: Rat CFA in vivo model (mechanical hyperalgesia, paw withdrawal threshold). Particulars: dosed 1 h before CFA and 24 h later, mean ± S.D. Here is the method: Male Sprague Dawley rats were used. Mechanical hyperalgesia was induced by injecting 25 μL of Complete Freund's Adjuvant (CFA) into the plantar surface of one hind paw. Mechanical hyperalgesia was measured using the Pressure Application Measurement apparatus (Ugo Basile, Gemonio, Italy). Briefly, a linearly increasing pressure was applied to an area of ˜ 50 mm2 of the plantar side of the hind paw until a behavioural response (paw withdrawal) was observed or until the pressure reached 1000 gf. The pressure at which the behavioural response occurred was recorded as the “Paw Withdrawal Threshold” (PWT). Both CFA-injected and contralateral PWTs were determined for each rat, in each treatment group and for the vehicle group at each time point of the studies. Each compound example was administered orally in the vehicle solution of dimethylsulfoxide (DMSO), Polyethylenglycol (PEG) and 2-Hydroxypropyl-beta-cyclodextrin (HPCD) (v/v/v=3:20:77). Rats received a first dose as specified in Table 3 in a solution of 5 mL/kg bodyweight application volume 1 hour before CFA injection and a second dose 24 hours later. Mechanical hyperalgesia testing was performed approximately 2 hours before CFA injection, then 2 and 4 hours after the second dose of compound example (i.e. 26 and 28 hours after CFA treatment). Animals in the vehicle group were treated in the identical way like the other groups but without compound in the orally applied solution. Data were expressed as the mean±S.D. Area Under the Curve (AUC) of PWTs (defined in table 3 as “AUC of Paw withdrawal threshold (AUC 0-4 hours) post-vehicle” with respect to vehicle group or “AUC of Paw withdrawal threshold (AUC 0-4 hours) post-drug” with respect to the compound example). Data were analysed by performing a one-way ANOVA followed by a Dunnett's post hoc test. For p values less than 0.05 the results were deemed to be statistically significant.

For the molecule `CCOc1ccc(-c2ccc(NC(=O)C3(c4cccc(Cl)c4)CC3)cc2-c2nnn[nH]2)cn1` [Example 253, 1-(3-Chlorophenyl)-N-[4-(6-ethoxypyridin-3-yl)-3-(1H-tetrazol-5-yl)phenyl]cyclopropanecarboxamide], the pIC50 in test [1] was 7.83. Further, the “AUC of Paw Oedema (AUC 0-1 hour post DABK)” value is recorded as 3.24 ± 2.73 (*) in test [2] (10 mg/kg) and 3.67 ± 2.35 (*) in test [2] (30 mg/kg). Also, the “AUC of Paw withdrawal threshold (AUC 0-4 hours) post-drug” value was 1415 ± 274 gf (*) in test [3] (3 mg/kg p.o., p < 0.05 vs vehicle (1083 ± 93 gf)); 1439 ± 310 gf (**) in test [3] (10 mg/kg p.o., p < 0.01 vs vehicle (1083 ± 93 gf)); 1649 ± 301 gf (***) in test [3] (30 mg/kg p.o., p < 0.0001 vs vehicle (1083 ± 93 gf)).
For the molecule `COc1ccc(-c2ccc(NC(=O)C3(c4cccc(Cl)c4)CC3)cc2-c2nnn[nH]2)cc1OC` [Example 1, 1-(3-Chlorophenyl)-N-[3′,4′-dimethoxy-2-(1H-tetrazol-5-yl)biphenyl-4-yl]cyclopropanecarboxamide], in test [1], the pIC50 was 7.85.
